Key:
[1] = test system: weeds; test: Pre-emergence test, action against weeds; type: in vivo
Protocol: (§1) Solvent: 5 parts by weight of acetone
(§2) Emulsifier: 1 part by weight of alkylaryl polyglycol ether
(§3) To produce a suitable preparation of active compound, 1 part by weight of active compound is mixed with the stated amount of solvent, the stated amount of emulsifier is added and the concentrate is diluted with water to the desired concentration.
(§4) Seeds of the test plants are sown in normal soil. After 24 hours, the soil is sprayed with the preparation of active compounds such that the particular amount of active compound desired is applied per unit area. The concentration of active compound in the spray liquor is chosen such that the particular amount of active compound desired is applied in 1000 litres of water per hectare.
(§5) After three weeks, the degree of damage to the plants is rated in % damaged in comparison to the development of the untreated control. The figures denote:
(§6) 0%=no effect (like untreated control)

[2] = test system: Alopecurus; test: Pre-emergence test, Alopecurus; type: in vivo; details: after three weeks
Protocol: as §1, §2, §3, §4, §5, §6

[3] = test system: Amaranthus; test: Pre-emergence test, Amaranthus; type: in vivo; details: after three weeks
Protocol: as §1, §2, §3, §4, §5, §6

[4] = test system: Lolium; test: Pre-emergence test, Lolium; type: in vivo; details: 30 g ai/ha, after three weeks
Protocol: as §1, §2, §3, §4, §5, §6

[5] = test system: Galium; test: Pre-emergence test, Galium; type: in vivo; details: 30 g ai/ha, after three weeks
Protocol: as §1, §2, §3, §4, §5, §6

[6] = test system: Stellaria; test: Pre-emergence test, Stellaria; type: in vivo; details: 30 g ai/ha, after three weeks
Protocol: as §1, §2, §3, §4, §5, §6

[7] = test system: Sugar beet; test: Pre-emergence test, Sugar beet; type: in vivo; details: 30 g ai/ha, after three weeks, vs untreated control (Table A-5)
Protocol: as §1, §2, §3, §4, §5, §6

[8] = test system: Matricaria; test: Pre-emergence test, Matricaria; type: in vivo; details: after three weeks
Protocol: as §1, §2, §3, §4, §5, §6

[9] = test system: Solanum; test: Pre-emergence test, Solanum; type: in vivo; details: after three weeks
Protocol: as §1, §2, §3, §4, §5, §6

[10] = test system: Viola; test: Pre-emergence test, Viola; type: in vivo; details: after three weeks
Protocol: as §1, §2, §3, §4, §5, §6

[11] = test system: Barley; test: Pre-emergence test, Barley; type: in vivo; details: 4 g ai/ha, after three weeks, vs untreated control (Table A-2)
Protocol: as §1, §2, §3, §4, §5, §6

[12] = test system: Wheat; test: Pre-emergence test, Wheat; type: in vivo; details: after three weeks
Protocol: as §1, §2, §3, §4, §5, §6

[13] = test system: weeds; test: Post-emergence test, action against weeds; type: in vivo
Protocol: as §1, §2, §3
(§7) Test plants of a height of 5-15 cm are sprayed with the preparation of active compound such that the particular amounts of active compound desired are applied per unit area. The concentration of the spray liquor is chosen such that the particular amounts of active compound desired are applied in 10001 of water/ha.
(§8) After three weeks, the degree of damage to the plants is rated in % damage in comparison to the development of the untreated control.
as §6

[14] = test system: Abutilon; test: Post-emergence test, Abutilon; type: in vivo; details: 15 g ai/ha, after three weeks
Protocol: as §1, §2, §3, §7, §8, §6

[15] = test system: Amaranthus; test: Post-emergence test, Amaranthus; type: in vivo; details: 15 g ai/ha, after three weeks
Protocol: as §1, §2, §3, §7, §8, §6

[16] = test system: Matricaria; test: Post-emergence test, Matricaria; type: in vivo; details: 15 g ai/ha, after three weeks
Protocol: as §1, §2, §3, §7, §8, §6

[17] = test system: Stellaria; test: Post-emergence test, Stellaria; type: in vivo; details: 15 g ai/ha, after three weeks
Protocol: as §1, §2, §3, §7, §8, §6

[18] = test system: Alopecurus; test: Post-emergence test, Alopecurus; type: in vivo; details: 15 g ai/ha, after three weeks, vs untreated control (Table B-2)
Protocol: as §1, §2, §3, §7, §8, §6

[19] = test system: Echinochloa; test: Post-emergence test, Echinochloa; type: in vivo; details: 15 g ai/ha, after three weeks, vs untreated control (Table B-2)
Protocol: as §1, §2, §3, §7, §8, §6

[20] = test system: Lolium; test: Post-emergence test, Lolium; type: in vivo; details: 15 g ai/ha, after three weeks, vs untreated control (Table B-2)
Protocol: as §1, §2, §3, §7, §8, §6

[21] = test system: Echinochloa; test: Pre-emergence test, Echinochloa; type: in vivo; details: 30 g ai/ha, after three weeks
Protocol: as §1, §2, §3, §4, §5, §6

[22] = test system: Setaria; test: Post-emergence test, Setaria; type: in vivo; details: 15 g ai/ha, after three weeks, vs untreated control (Table B-1)
Protocol: as §1, §2, §3, §7, §8, §6

[23] = test system: Xanthium; test: Post-emergence test, Xanthium; type: in vivo; details: 15 g ai/ha, after three weeks, vs untreated control (Table B-1)
Protocol: as §1, §2, §3, §7, §8, §6

[24] = 30 g ai/ha, vs untreated control (Table A-5)
[25] = vs untreated control (Table A-5)
[26] = 4 g ai/ha, vs untreated control (Table A-2)
[27] = vs untreated control (Table B-2)
[28] = 30 g ai/ha, vs untreated control (Table A-3)
[29] = vs untreated control (Table A-3)
[30] = 30 g ai/ha, vs untreated control (Table A-4)
[31] = vs untreated control (Table A-4)
[32] = 8 g ai/ha, vs untreated control (Table A-1)
[33] = vs untreated control (Table B-1)

CCCc1cccc(OCCCF)c1S(=O)(=O)NC(=O)n1nc(N(C)C)n(C2CC2)c1=O [Ex. 114]
action against weeds [1]: very strong action
degree of damage, Alopecurus [2, 24]: 95%
degree of damage, Amaranthus [3, 24]: 95%
degree of damage, Lolium [4, 25]: 95%
degree of damage, Galium [5, 25]: 80%
degree of damage, Stellaria [6, 25]: 95%
degree of damage, Sugar beet [7]: 0%
melting point: 130 °C

CCCOc1nn(C(=O)NS(=O)(=O)c2c(OCC)cccc2OCCF)c(=O)n1C [Ex. 34]
action against weeds [1]: very strong action
degree of damage, Alopecurus [2, 26]: 100%
degree of damage, Amaranthus [3, 26]: 95%
degree of damage, Matricaria [8, 26]: 100%
degree of damage, Solanum [9, 26]: 95%
degree of damage, Viola [10, 26]: 95%
degree of damage, Barley [11]: 10%
degree of damage, Wheat [12, 26]: 0%
melting point: 123 °C

CCOc1cccc(OCCF)c1S(=O)(=O)NC(=O)n1nc(OCC)n(C)c1=O [Ex. 33]
action against weeds [13]: very strong action
degree of damage, Abutilon [14, 27]: 100%
degree of damage, Amaranthus [15, 27]: 100%
degree of damage, Matricaria [16, 27]: 100%
degree of damage, Stellaria [17, 27]: 100%
degree of damage, Alopecurus [18]: 95%
degree of damage, Echinochloa [19]: 100%
degree of damage, Lolium [20]: 95%
melting point: 157 °C

COc1nn(C(=O)NS(=O)(=O)c2c(C)cccc2OCCCF)c(=O)n1C [Ex. 41]
action against weeds [1]: very strong action
degree of damage, Amaranthus [3, 28]: 95%
degree of damage, Matricaria [8, 28]: 100%
degree of damage, Wheat [12, 28]: 0%
degree of damage, Echinochloa [21, 29]: 95%
degree of damage, Lolium [4, 29]: 90%
degree of damage, Galium [5, 29]: 100%
degree of damage, Stellaria [6, 29]: 100%
melting point: 120 °C

CCc1ccccc1S(=O)(=O)N(OCCF)C(=O)n1nc(C)n(C2CC2)c1=O [Ex. 1, 4-cyclopropyl-5-methyl-2-[(2-fluoro-ethoxy)-6-ethyl-phenylsulphonylaminocarbonyl]-2,4-dihydro-3H-1,2,4-triazol-3-one]
melting point: 147 °C

CCc1cccc(OCCCF)c1S(=O)(=O)NC(=O)n1nc(CC)n(C2CC2)c1=O [Ex. 93]
action against weeds [1]: very strong action
degree of damage, Alopecurus [2, 30]: 95%
degree of damage, Amaranthus [3, 30]: 100%
degree of damage, Viola [10, 30]: 100%
degree of damage, Echinochloa [21, 31]: 100%
degree of damage, Lolium [4, 31]: 95%
degree of damage, Galium [5, 31]: 95%
degree of damage, Stellaria [6, 31]: 100%
melting point: 140 °C

CCCOc1cccc(OCCF)c1S(=O)(=O)NC(=O)n1nc(OCC)n(C)c1=O [Ex. 32]
action against weeds [1]: very strong action
degree of damage, Alopecurus [2, 32]: 100%
degree of damage, Amaranthus [3, 32]: 100%
degree of damage, Matricaria [8, 32]: 100%
degree of damage, Solanum [9, 32]: 100%
degree of damage, Viola [10, 32]: 100%
action against weeds [13]: very strong action
degree of damage, Setaria [22]: 95%
degree of damage, Abutilon [14, 33]: 100%
degree of damage, Amaranthus [15, 33]: 100%
degree of damage, Matricaria [16, 33]: 100%
degree of damage, Stellaria [17, 33]: 100%
degree of damage, Xanthium [23]: 100%
melting point: 132 °C
